According to patent US12527869B2, “Stable microspheres, method off abrication and use thereof” (B. G. NEGEV TECHNOLOGIES AND APPLICATIONS LTD., AT …, priority 2018, dated 2026):
Converted amounts (≈) assume the structure as drawn.

Tests used:
[1] = cited from earlier work
[2] = cited from earlier work; for Ostwald coefficient (×10^6): gas solubility
[3] = In vitro cavitation measurement by passive cavitation detection (PCD); details: C3F8; 499 KPa; about 6×10^7 MBs or 350 μl free gas
Protocol: Lyophilized microbubbles prepared as described in Example 1 herein were weighed and inserted into a headspace vial, and the vial was sealed by a screw cap with 1.3 mm silicone septum. Empty 50 ml syringe, 10 ml syringe filled with the desired gas and a 27 G needle, were connected to a 3 ways stopcock. The air inside the vail was drawn using the 50 ml syringe to form a vacuum, then the desired gas in the 10 ml syringe was injected into the vial. The MBs were dispersed with the desired volume (3 ml-7 ml) of degassed water, which was injected with an additional syringe and needle (23 G) through the septum cap, to prevent gas leakage. […]
Acoustic absorbing material (E in FIG. 8) was located at the top of the chamber to prevent ultrasound reflection, and a receiver (hydrophone manufactured by InSightec) was placed at an angle of […] to the direction of wave propagation (F in FIG. 8). […] These variations were recorded by the same digital pico-oscilloscope, and the data was analyzed using MATLAB software. […]
Between measurements, it was necessary to degas the water in the system to ensure that the measured cavitation was caused by the activity of microbubbles examined in the specific experiment, and not as a result of existing gas bubbles in water, or microbubbles from a previous experiment, which remained in the system. […]
The data were analyzed using MATLAB software. […]

Row | SMILES | water solubility [1] [mg/mL] | Ostwald coefficient (×10^6) [2] | Diffusivity coefficient in water [2] | cavitation dose (CD) by inner core structure, compared with hollow single-core microbubbles [3]
1 | ClCCl [DCM, dichloromethane] | 20 (≈ 235 mM) |  |  | 
2 | FS(F)(F)(F)(F)F [SF6, sulfur hexafluoride] |  | 5400 ×10^6 | 12 m^2s^−1 (×10^10) | 
3 | FC(F)(F)C(F)(F)C(F)(F)F [Synthesis C3F8, perfluoropropane] |  | 520 ×10^6 | 7.45 m^2s^−1 (×10^10) | very low
4 | FC(F)(F)C(F)(F)C(F)(F)C(F)(F)F [Synthesis C4F10, perfluorobutane] |  | 202 ×10^6 | 6.9 m^2s^−1 (×10^10) | 
5 | CCOC(C)=O [ethyl acetate] | 90 |  |  | 
